Test in all cases: Post-emergence herbicidal test, % visual injury
Assay type in all cases: in vivo
Common to all, as to details: 336 h, 14±1 days post application; for pest or weed control at 500 g/ha: rate 500 g/ha; for pest or weed control at 250 g/ha: rate 250 g/ha

In test [1] the test system is Amaranthus retroflexus (AMARE). Here is the method: (§1) Seeds of a variety of test species are grown in a sandy loam soil mixture, Lolium multiflorum (LOLMU), Amaranthus retroflexus (AMARE), Echinochloa crus-galli (ECHCG), Veronica persica (VERPE).
(§2) After sowing, at growth stage BBCH 12-14 (post-emergence), the plants are sprayed with an aqueous spray solution derived from the formulation of the technical active ingredient in acetone/water (50:50) solution containing 0.5% Tween 20 (polyoxyethlyene sorbitan monolaureate, CAS RN 9005-64-5). The test compounds are applied at the required concentration of active ingredient in g/ha. The test plants are then grown in a glasshouse under controlled environmental conditions and watered regularly as required. After 14±1 days post application (for post-emergence test), the test is evaluated by assessing the percentage damage caused to the plants in comparison with the untreated plots. The biological activities for post-emergence testing are shown below (Table 3) as a % visual injury.

Test [2] has as its system Veronica persica (VERPE). Here is the method: as §1, §2
Test [3] concerns Echinochloa crus-galli (ECHCG). Here is the method: as §1, §2
Test [4] relates to Lolium multiflorum (LOLMU). Here is the method:
as §1, §2

Usually pest or weed control stands for the degree to which the test organism was suppressed or injured, in per cent. Low values mean weak suppression, high ones strong suppression.

`Cc1cccc(Cl)c1OCC(=O)Nc1nnc(C(F)(F)F)[nH]1` [Compound 18]: the pest or weed control at 500 g/ha in test [1] was determined as 0%; in test [2] it was 70%; in test [3], 0%; in test [4], 0%.

On to `CN(C(=O)COc1ccc(F)cc1Cl)c1nc(C(F)(F)F)nn1C` [Compound 42, 2-(2-chloro-4-fluorophenoxy)-N-methyl-N-[1-methyl-3-(trifluoromethyl)-1H-1,2,4-triazol-5-yl]acetamide], for which the pest or weed control at 500 g/ha in test [1] was 90%; in test [2] it was 60%; in test [3], 60%; in test [4], 40%.

On to `O=C(COc1ccc(F)cc1F)Nc1nnc(C(F)(F)F)[nH]1` [Compound 10, 2-(2,4-difluorophenoxy)-N-[5-(trifluoromethyl)-4H-1,2,4-triazol-3-yl]acetamide], for which the pest or weed control at 500 g/ha in test [1] worked out at 40%; in test [2], 80%; in test [3], 30%; in test [4], 0%.

On to `O=C(COc1ccccc1-n1cnnc1)Nc1nc(C(F)(F)F)n[nH]1` [Compound 92], for which the pest or weed control at 500 g/ha in test [1] was 0%; in test [2] it was 70%; in test [3], 0%; in test [4], 0%.

As for `CN(C)c1n[nH]c(NC(=O)COc2ccc(F)cc2Cl)n1` [Compound 24], the pest or weed control at 500 g/ha in test [1] is 70%; in test [2], 50%; in test [3], 70%; in test [4], 0%.

`O=C(COc1nc(Cl)c(Cl)cc1Cl)Nc1nnc(C(F)(F)F)[nH]1` [Compound 37]: the pest or weed control at 500 g/ha in test [1] turned out to be 80%; in test [2], 30%; in test [3], 60%; in test [4] it was 5%.

For the molecule `CCC(Oc1ccccc1Cl)C(=O)Nc1nnc(C(F)(F)F)[nH]1` (stereo not shown) [Compound 12], the pest or weed control at 500 g/ha was determined as 70% in test [1], 60% in test [2], 10% in test [3] and 0% in test [4].

In the case of `Cc1ccc(OCC(=O)Nc2nnc(C(F)(F)F)[nH]2)cc1` [Compound 20], the pest or weed control at 500 g/ha was found to be 0% in test [1], 40% in test [2], 30% in test [3] and 0% in test [4].

Consider `O=C(COc1c(Cl)cccc1Cl)Nc1nnc(C(F)(F)F)[nH]1` [Compound 9], for which the pest or weed control at 500 g/ha worked out at 20% in test [1], 0% in test [2], 0% in test [3] and 0% in test [4].

Take `O=C(COc1ccc(F)cc1Cl)Nc1n[nH]c(C2CC2)n1` [Compound 1]: the pest or weed control at 500 g/ha is 100% in test [1], 60% in test [2], 90% in test [3] and 40% in test [4].

For the molecule `O=C(COc1cccc(Br)c1)Nc1nnc(C(F)(F)F)[nH]1` [Compound 21], the pest or weed control at 500 g/ha in test [1] was 0%; in test [2], 60%; in test [3] it was 0%; in test [4] it was 20%.

For the molecule `Nc1c(Cl)c(F)nc(OCC(=O)Nc2nnc(C(F)(F)F)[nH]2)c1Cl` [Compound 38], the pest or weed control at 500 g/ha is 100% in test [1], 98% in test [2], 0% in test [3] and 30% in test [4].

For the molecule `CS(=O)(=O)c1ccc(OCC(=O)Nc2nnc(C(F)(F)F)[nH]2)cc1` [Compound 13], the pest or weed control at 500 g/ha turned out to be 60% in test [1], 80% in test [2], 0% in test [3] and 60% in test [4].

In the case of `Cc1cccc(C)c1OCC(=O)Nc1nnc(C(F)(F)F)[nH]1` [Compound 100], the pest or weed control at 500 g/ha was found to be 0% in test [1], 20% in test [2], 0% in test [3] and 0% in test [4].

In the case of `O=C(COc1ccc(Cl)cc1Cl)Nc1nnc(C(F)(F)F)o1` [Compound 97], the pest or weed control at 125 g/ha turned out to be 100% in test [1] (rate 125 g/ha), 100% in test [2] (rate 125 g/ha), 0% in test [3] (rate 125 g/ha) and 0% in test [4] (rate 125 g/ha).

In the case of `O=C(COc1ccc(Cl)cc1Cl)Nc1nnc(-c2ccc(F)cc2)[nH]1` [Compound 96], the pest or weed control at 500 g/ha is 90% in test [1], 90% in test [2], 30% in test [3] and 0% in test [4].

Take `CCC(Oc1ccccc1F)C(=O)Nc1nnc(C(F)(F)F)[nH]1` (stereo not shown) [Compound 19]: the pest or weed control at 500 g/ha was found to be 0% in test [1], 20% in test [2], 0% in test [3] and 0% in test [4].

Consider `Cn1nc(C(F)(F)F)nc1NC(=O)COc1ccc(F)cc1Cl` [Compound 41, 2-(2-chloro-4-fluorophenoxy)-N-[1-methyl-3-(trifluoromethyl)-1H-1,2,4-triazol-5-yl]acetamide], for which the pest or weed control at 500 g/ha in test [1] worked out at 95%; in test [2], 70%; in test [3], 60%; in test [4], 40%.

In the case of `O=C(COc1ccc(F)cc1Cl)Nc1n[nH]c(C2CCC2)n1` [Compound 22], the pest or weed control at 500 g/ha in test [1] was 100%; in test [2] it was 90%; in test [3], 90%; in test [4], 40%.

Regarding `O=C(COc1ccc(Cl)c(F)c1)Nc1nnc(C(F)(F)F)[nH]1` [Compound 16, 2-(4-chloro-3-fluorophenoxy)-N-[5-(trifluoromethyl)-4H-1,2,4-triazol-3-yl]acetamide], the pest or weed control at 500 g/ha is 100% in test [1], 70% in test [2], 20% in test [3] and 0% in test [4].

Turning to `O=C(COc1ccc(F)cc1Cl)Nc1nnc(-c2cccc3ccccc23)[nH]1` [Compound 101], the pest or weed control at 500 g/ha worked out at 100% in test [1], 80% in test [2], 70% in test [3] and 20% in test [4].

Take `COCc1n[nH]c(NC(=O)COc2ccc(F)cc2Cl)n1` [Compound 3]: the pest or weed control at 500 g/ha in test [1] turned out to be 100%; in test [2] it was 90%; in test [3], 90%; in test [4], 60%.

Turning to `COc1nnc(NC(=O)COc2ccc(F)cc2Cl)[nH]1` [Compound 99], the pest or weed control at 250 g/ha in test [1] came to 50%; in test [2] it was 50%; in test [3] it was 0%; in test [4], 0%.

Take `Cn1c(NC(=O)COc2ccc(F)cc2Cl)nnc1C(F)(F)F` [Compound 40]: the pest or weed control at 500 g/ha in test [1] was found to be 100%; in test [2], 100%; in test [3], 70%; in test [4], 60%.

In the case of `O=C(COc1ccc(F)cc1Cl)Nc1nnc(N2CCCC2)[nH]1` [Compound 6], the pest or weed control at 500 g/ha in test [1] was determined as 50%; in test [2], 50%; in test [3] it was 20%; in test [4], 0%.

Regarding `CCn1cnnc1NC(=O)COc1cccc(C(F)(F)F)c1` [Compound 102], the pest or weed control at 500 g/ha in test [1] was found to be 50%; in test [2] it was 7%; in test [3], 70%; in test [4] it was 0%.

In the case of `CC(C)(C)c1nc(NC(=O)COc2ccc(F)cc2Cl)n[nH]1` [Compound 7], the pest or weed control at 500 g/ha in test [1] amounted to 60%; in test [2], 60%; in test [3], 80%; in test [4], 40%.

As for `O=C(COc1cccc(C(F)(F)F)c1)Nc1nnc(C(F)(F)F)[nH]1` [Compound 4], the pest or weed control at 500 g/ha was determined as 99% in test [1], 80% in test [2], 20% in test [3] and 0% in test [4].

On to `O=C(COc1ccc2c(c1)NC(=O)CC2)Nc1nc(C(F)(F)F)n[nH]1` [Compound 90], for which the pest or weed control at 500 g/ha was determined as 0% in test [1], 70% in test [2], 0% in test [3] and 0% in test [4].

For `CC(Oc1cccc(Cl)c1)C(=O)Nc1nnn[nH]1` (stereo not shown) [Compound 98], the pest or weed control at 250 g/ha was found to be 0% in test [1], 20% in test [2], 0% in test [3] and 10% in test [4].

In the case of `Cc1ccc(OCC(=O)Nc2nnc(C(F)(F)F)[nH]2)c(Br)c1` [Compound 15], the pest or weed control at 500 g/ha in test [1] was 0%; in test [2], 50%; in test [3], 0%; in test [4] it was 0%.

(Values after patent publication US20230255205A1, “HERBICIDAL HETEROCYCLIC DERIVATIVES” (MoA Technology Limited, priority 2020, published 2023).)
